{
  "source": "patent US20070065519A1",
  "about": "“Copper ion-producing composition” (priority 2005, published 2007)",
  "key": {"[1]": {"system": "Legionella ssp.", "format": "cell-based"}, "[2]": {"system": "Escherichia coli", "assay": "germicidal testing at 0.4 ppm chlorine (Comparative Example 2)", "format": "cell-based", "conditions": "concentration of 0.4 ppm"}, "[3]": {"system": "Staphylococcus aureus", "assay": "germicidal testing at 0.4 ppm chlorine (Comparative Example 2)", "format": "cell-based", "conditions": "concentration of 0.4 ppm"}, "[4]": {"assay": "time course of residual chlorine concentration in 42° C. hot water", "conditions": "chlorine level 0.4 ppm at start"}},
  "data": [
    {"smiles": "OCl", "note": "[Sodium hypochlorite]", "values": [
      {"measurement": "germicidal activity", "setting": "[1]", "value": "no germicidal activity"},
      {"measurement": "germicidal activity", "setting": "[2]", "value": "no germicidal activity"},
      {"measurement": "germicidal activity", "setting": "[3]", "value": "no germicidal activity"},
      {"measurement": "residual concentration in the water (chlorine)", "setting": "[4]; after 30 minutes", "value": 0.3, "unit": "ppm"},
      {"measurement": "residual concentration in the water (chlorine)", "setting": "[4]; after 60 minutes", "value": 0.2, "unit": "ppm"},
      {"measurement": "residual concentration in the water (chlorine)", "setting": "[4]; at 90 minutes", "value": 0, "unit": "ppm"}
    ]}
  ]
}
